We go through one molecule from article PMC7241120 (2020).

Structures are written as SMILES.

The assay relates to Pu19m2 (DNA, G4) AAGGGAGGGCGGCGGGACA
Put plainly: thermal melting. The note with it: 50 mM K+; complex ~60 °C, free unimolecular vG4 ~45 °C.

For the molecule `Nc1nc2c(ncn2[C@H]2C[C@H](O)[C@@H](COP(=O)(O)O)O2)c(=O)[nH]1`, the Tm was ~ 15 °C.
